# Data: publication PMC10304880, “Novel Tryptanthrin Derivatives with Selectivity as c–Jun N–Terminal Kinase (JNK) 3 Inhibitors” (Molecules, 2023)
# Read-outs that look alike come from different tables or passages of the source.
# Legend:
# [1] = tested on: NF-κB/AP-1 transcriptional activity in THP-1Blue cells; assay: LPS-induced NF-κB/AP-1 alkaline phosphatase reporter assay in THP-1Blue cells; type: cell-based; details: Homo sapiens, 30 min pretreatment, 250 ng/mL LPS, 24 h; read-out: AP Production in THP–1Blue IC50
# Description: Activation of AP-1/NF-κB was measured using an alkaline phosphatase reporter gene assay in THP1-Blue cells. Human monocytic THP-1Blue cells were stably transfected with a secreted embryonic alkaline phosphatase gene that was under the control of a promoter inducible by AP-1/NF-κB.
# (§1) Figure 2 Effect of compounds 4d and 4e on NF-κB/AP-1 activity and IL-6 production. Panel (A) THP-1Blue cells were pretreated with the indicated compounds or DMSO for 30 min, followed by addition of 250 ng/mL LPS or buffer for 24 h. […] Panel (B) MonoMac-6 cells were pretreated with the indicated compounds or DMSO for 30 min, followed by addition of 250 ng/mL LPS or buffer for 24 h. Production of IL-6 in the supernatants was evaluated with ELISA. The data in each panel are presented as the mean ± S.D. of triplicate samples from one experiment that is representative of three independent experiments.
# [2] = CellTiter-Glo cytotoxicity in MonoMac-6 cells; type: cell-based; details: human, 24 h incubation
# Description: (§2) Prior to evaluation of the compounds in cell-based assays, we measured their cytotoxicity in human monocytic THP-1Blue and MonoMac-6 cells during a 24 h incubation. […] Thus, these compounds were all excluded from subsequent testing in these cell lines.
# (§3) Cytotoxicity was analyzed with a CellTiter-Glo Luminescent Cell Viability Assay Kit from Promega (Madison, WI, USA), according to the manufacturer’s protocol. Cells were treated with the compound under investigation and cultivated for 24 h. After treatment, the cells were allowed to equilibrate to room temperature for 30 min, substrate was added, and the luminescence measured using a Fluoroscan Ascent FL (Thermo Fisher Scientific, Waltham, MA, USA). The cell IC50 values were calculated by plotting the percentage inhibition against the logarithm of inhibitor concentration (at least five points).
# JNK3 [3] = target: T1, JNK3 (Homo sapiens, UniProt P53779); assay: KINOMEscan JNK3 binding (Kd); details: for Kd: KINOMEscan, 12-point series, max 33 μM, duplicate; for Selectivity Index JNK1/JNK3 / Selectivity Index JNK2/JNK3: ratio of Kd values
# T1 construct: purchased Eurofins Pharma Discovery (KINOMEscan service)
# T1 sequence (P53779 whole entry): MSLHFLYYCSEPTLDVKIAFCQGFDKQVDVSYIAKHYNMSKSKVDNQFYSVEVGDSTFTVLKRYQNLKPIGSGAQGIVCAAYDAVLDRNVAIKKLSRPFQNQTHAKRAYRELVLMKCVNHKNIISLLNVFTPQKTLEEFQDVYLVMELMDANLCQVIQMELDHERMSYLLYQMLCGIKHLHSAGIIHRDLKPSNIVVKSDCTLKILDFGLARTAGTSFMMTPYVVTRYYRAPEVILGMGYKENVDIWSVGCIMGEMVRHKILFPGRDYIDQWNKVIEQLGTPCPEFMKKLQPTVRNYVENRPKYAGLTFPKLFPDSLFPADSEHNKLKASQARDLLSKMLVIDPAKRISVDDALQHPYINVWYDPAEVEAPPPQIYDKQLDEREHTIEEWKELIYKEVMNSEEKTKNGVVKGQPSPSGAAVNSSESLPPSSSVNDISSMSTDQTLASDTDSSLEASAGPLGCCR
# Description: (§4) All compounds were evaluated for their ability to bind to JNK1-3 using the KINOMEscan platform.
# (§5) Compounds were submitted for dissociation constant (Kd) determination using KINOMEscan (Eurofins Pharma Discovery, San Diego, CA, USA), as described previously. […] Primary screening at fixed concentrations of compounds was performed in duplicate. To determine dissociation constant Kd, a 12-point half-log dilution series (a maximum concentration of 33 μM) was used.
# [4] = tested on: IL-6 production in MonoMac-6 cells; assay: LPS-induced IL-6 production in MonoMac-6 cells (ELISA); type: cell-based, human; details: 250 ng/mL LPS, 24 h
# Description: All cells were cultured at 37 °C in a humidified atmosphere containing 5% CO2. Human THP-1Blue monocytic cells obtained from InvivoGen (San Diego, CA, USA) were cultured in RPMI 1640 medium (Mediatech Inc., Herndon, VA, USA) supplemented with 10% (v/v) fetal bovine serum (FBS), 4.5 g/L glucose, 100 μg/mL streptomycin, 100 U/mL penicillin, 100 μg/mL phleomycin (Zeocin), and 10 μg/mL blasticidin S. Human monocyte-macrophage MonoMac-6 cells (Deutsche Sammlung von Mikroorganismen und Zellkulturen GmbH, Braunschweig, Germany) were grown in RPMI 1640 medium supplemented with 10% (v/v) FBS, 10 μg/mL bovine insulin, 100 μg/mL streptomycin, and 100 U/mL penicillin.
# as §1, with “Panel” for “Figure 2 Effect of compounds 4d and 4e on NF-κB/AP-1 activity and IL-6 production. Panel”
# [5] = tested on: c-Jun phosphorylation in MonoMac-6 cells; assay: LPS-induced c-Jun (Ser63) phosphorylation in MonoMac-6 cells (sandwich ELISA); type: cell-based, human; details: 30 min pretreatment, LPS 500 ng/mL
# Description: After 30 min pretreatment with the compounds, the cells were stimulated with LPS (500 ng/mL), and the level of phospho-c-Jun (S63) was determined by a sandwich ELISA.
# MonoMac-6 cell lysates were prepared using Cell Lysis Buffer (Cell Signaling Technology, Danvers, MA, USA). The phospho-c-Jun content was measured with ELISA using the PathScan Phospho-c-Jun (Ser63) Sandwich ELISA Kit II (Cell Signaling Technology, USA), and the data are shown as the ratio of phospho-c-Jun vs. total c-Jun, which was measured using the FastScanTM Total c-Jun ELISA kit (Cell Signaling Technology).
# Figure 3 Effect of the compounds 4d, 4e, 4h, and IQ-1S on LPS-induced c-Jun phosphorylation. Human MonoMac-6 monocytic cells were pretreated with the indicated concentrations of compounds or 0.5% DMSO for 30 min, followed by treatment with LPS (500 ng/mL) or control buffer for another 30 min. The cells were lysed, and the lysates were analyzed with ELISA for phospho-c-Jun (Ser63) and total c-Jun. The data are represented as the ratio of phospho-c-Jun to total c-Jun. The data are presented as the mean ± S.D. of triplicate samples from one experiment that is representative of three independent experiments. * Significant differences (p < 0.05) with LPS control.
# [6] = CellTiter-Glo cytotoxicity in THP-1Blue cells; type: cell-based; details: human, 24 h incubation
# Description: as §2, §3
# JNK1 [7] = target: T2, JNK1 (Homo sapiens, UniProt P45983); assay: KINOMEscan JNK1 binding (Kd); details: 12-point series, max 33 μM, duplicate
# T2 construct: purchased Eurofins Pharma Discovery (KINOMEscan service)
# T2 sequence (P45983 whole entry): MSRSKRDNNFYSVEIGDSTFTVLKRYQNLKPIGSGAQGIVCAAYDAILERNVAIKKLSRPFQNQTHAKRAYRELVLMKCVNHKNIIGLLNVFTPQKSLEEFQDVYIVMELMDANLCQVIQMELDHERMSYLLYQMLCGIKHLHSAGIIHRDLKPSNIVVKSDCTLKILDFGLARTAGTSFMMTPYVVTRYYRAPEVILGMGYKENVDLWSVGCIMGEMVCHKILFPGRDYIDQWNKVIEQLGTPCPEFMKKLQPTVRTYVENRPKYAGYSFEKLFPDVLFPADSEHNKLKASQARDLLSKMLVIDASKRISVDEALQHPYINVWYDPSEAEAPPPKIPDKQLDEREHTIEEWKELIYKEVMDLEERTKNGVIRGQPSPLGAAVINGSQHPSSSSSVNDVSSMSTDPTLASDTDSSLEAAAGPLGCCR
# Description: as §4, §5
# JNK2 [8] = target: T3, JNK2 (Homo sapiens, UniProt P45984); assay: KINOMEscan JNK2 binding (Kd); details: 12-point series, max 33 μM, duplicate
# T3 construct: purchased Eurofins Pharma Discovery (KINOMEscan service)
# T3 sequence (P45984 whole entry): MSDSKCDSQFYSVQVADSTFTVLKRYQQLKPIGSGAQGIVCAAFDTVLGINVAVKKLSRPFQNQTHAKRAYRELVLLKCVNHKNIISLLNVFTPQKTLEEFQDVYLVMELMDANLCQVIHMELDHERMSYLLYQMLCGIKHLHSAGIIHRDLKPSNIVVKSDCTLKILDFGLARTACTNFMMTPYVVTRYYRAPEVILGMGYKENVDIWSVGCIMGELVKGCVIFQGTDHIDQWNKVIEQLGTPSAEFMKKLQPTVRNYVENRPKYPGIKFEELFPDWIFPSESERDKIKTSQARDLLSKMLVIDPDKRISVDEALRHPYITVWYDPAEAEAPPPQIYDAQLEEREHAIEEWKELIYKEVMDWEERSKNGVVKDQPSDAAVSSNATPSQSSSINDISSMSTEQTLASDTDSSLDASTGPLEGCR
# Description: as §4, §5
# JNK3 [9] = target: T1, JNK3; details: cited from earlier work; for Kd: Figure 1, ref [49],[50],[51]
# JNK1 [10] = target: T2, JNK1; details: Figure 1; ref [49],[50],[51]; cited from earlier work
# JNK2 [11] = target: T3, JNK2; details: Figure 1; ref [49],[50],[51]; cited from earlier work
# [12] = Homo sapiens, MONO-MAC-6, 30 min pretreatment
Compound,melting point,IC50 [1],selectivity index (JNK3 versus JNK1 and JNK2) (JNK3 [3]),Kd (JNK3 [3]),Selectivity Index JNK1/JNK3 (JNK3 [3]),Selectivity Index JNK2/JNK3 (JNK3 [3]),IC50 ([4]; 30 min pretreatment),"IC50 [4, 12]",Kd (JNK1 [7]),Kd (JNK2 [8]),IC50 at 24 h [2],LPS-induced c-Jun phosphorylation (phospho-c-Jun S63 / total c-Jun) [5],IC50 at 24 h [6],Kd (JNK3 [9]),Kd (JNK1 [10]),Kd (JNK2 [11]),selectivity for JNK3 binding versus JNK1/JNK2 (JNK3 [9]; ref [49])
"COc1ccc2c(c1)C(=NO)c1nc3ccccc3c(=O)n1-2 [Compound 4d, 8-Methoxyindolo[2,1-b]quinazolin-6,12-dione Oxime]",> 225 °C (dec.),0.8 ± 0.3 µM,> 7,340 ± 30 nM,>100,>100,0.7 ± 0.1 µM,< 1 µM,> 30 µM,> 30 µM,> 50 µM,dose-dependently inhibited,> 50 µM,–,–,–,–
"O=c1c2ccccc2nc2n1-c1ccc(-c3ccccc3)cc1C2=NO [Compound 4e, 8-Phenylindolo[2,1-b]quinazolin-6,12-dione Oxime]",> 225 °C (dec.),1.6 ± 0.1 µM,> 7,340 ± 40 nM,>100,>100,–,–,> 30 µM,> 30 µM,> 50 µM,dose-dependently inhibited,> 50 µM,–,–,–,–
"Cc1ccc2c(c1)-n1c(nc3ccccc3c1=O)C2=NO [Compound 4h, 9-Methylindolo[2,1-b]quinazolin-6,12-dione Oxime]",> 225 °C (dec.),–,–,230 ± 40 nM,2.9,2.5,–,–,0.67 ± 0.35 µM,0.57 ± 0.12 µM,> 50 µM,dose-dependently inhibited,> 50 µM,–,–,–,–
"COc1ccc2c(c1)C(=NO)c1nc3ccc(OC)cc3c(=O)n1-2 [Compound 4q, 2,8-Dimethoxylindolo[2,1-b]quinazolin-6,12-dione Oxime]",262 to 263 °C,4.6 ± 0.3 µM,–,> 30000 nM,–,–,–,1.3 ± 0.4 µM,> 30 µM,> 30 µM,> 50 µM,–,> 50 µM,–,–,–,–
"O=c1c2c(Br)cccc2nc2n1-c1cccc(Br)c1C2=NO [Compound 4u, 1,7-Dibromoindolo[2,1-b]quinazolin-6,12-dione Oxime]",> 300 °C (dec.),> 50 µM,–,> 30000 nM,–,–,–,> 50 µM,> 30 µM,> 30 µM,> 50 µM,–,> 50 µM,–,–,–,–
"[Na+].[O-]/N=C1/c2ccccc2-c2nc3ccccc3nc21 [IQ-1S, reference compound]",–,–,–,–,–,–,–,–,–,–,–,dose-dependently inhibited,–,–,–,–,–
O/N=C1\c2ccccc2-c2nc3cc(F)c(F)cc3nc21 [IQ–4f],–,–,–,–,–,–,–,–,–,–,–,–,–,520 nM,170 nM,> 30 µM,–
O/N=C1\c2ccccc2-c2nc3ccc(Cl)cc3nc21 [IQ–6i],–,–,–,–,–,–,–,–,–,–,–,–,–,710 nM,1100 nM,21.5 µM,–
N#CCO/N=C1\c2ccccc2-n2c1nc1ccccc1c2=O [TRYP–1e],–,–,–,–,–,–,–,–,–,–,–,–,–,1500 nM,19500 nM,17.5 µM,~ 10 fold

# The next lines start with results.
melting point,IC50 [1],selectivity index (JNK3 versus JNK1 and JNK2) (JNK3 [3]),Kd (JNK3 [3]),Selectivity Index JNK1/JNK3 (JNK3 [3]),Selectivity Index JNK2/JNK3 (JNK3 [3]),IC50 ([4]; 30 min pretreatment),"IC50 [4, 12]",Kd (JNK1 [7]),Kd (JNK2 [8]),Compound,IC50 at 24 h [2],LPS-induced c-Jun phosphorylation (phospho-c-Jun S63 / total c-Jun) [5],IC50 at 24 h [6],Kd (JNK3 [9]),Kd (JNK1 [10]),Kd (JNK2 [11]),selectivity for JNK3 binding versus JNK1/JNK2 (JNK3 [9]; ref [49])
218 °C,> 50 µM,–,> 30000 nM,–,–,–,> 50 µM,> 30 µM,> 30 µM,"CCOC(=O)CON=C1c2ccccc2-n2c1nc1ccccc1c2=O [Compound 5a, Ethyl 2-(((12-Oxoindolo[2,1-b]quinazolin-6(12H)-ylidene)amino)oxy)acetate]",> 50 µM,–,> 50 µM,–,–,–,–
211 °C,> 50 µM,–,> 30000 nM,–,–,–,> 50 µM,16.5 ± 0.7 µM,> 30 µM,"CCOC(=O)C(ON=C1c2ccccc2-n2c1nc1ccccc1c2=O)C(=O)OCC [Compound 5b, Diethyl 2-(((12-Oxoindolo[2,1-b]quinazolin-6(12H)-ylidene)amino)oxy)malonate]",> 50 µM,–,> 50 µM,–,–,–,–
197 °C,8.1 ± 2.2 µM,–,700 ± 120 nM,2.4,4.0,–,12.4 ± 1.3 µM,1.7 ± 0.4 µM,2.8 ± 0.5 µM,"COC(=O)ON=C1c2ccccc2-n2c1nc1ccccc1c2=O [Compound 5c, 6-(((Methoxycarbonyl)oxy)imino)indolo[2,1-b]quinazolin-12(6H)-one]",> 50 µM,–,> 50 µM,–,–,–,–
210 °C,4.4 ± 1.6 µM,–,320 ± 60 nM,3.0,5.0,–,7 ± 0.9 µM,0.95 ± 0.03 µM,1.6 ± 0.1 µM,"C#CCOC(=O)ON=C1c2ccccc2-n2c1nc1ccccc1c2=O [Compound 5d, 6-((((Prop-2-yn-1-yloxy)carbonyl)oxy)imino)indolo[2,1-b]quinazolin-12(6H)-one]",> 50 µM,–,> 50 µM,–,–,–,–
